From PubChem BioAssay (NCI)
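Exposure lasted 48 hours, with cells grown in 96-well plates and compounds tested at five concentrations. GI50: concentration for 50% inhibition of growth. TGI: total growth inhibition.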

Assays:
Experiment in all cases: growth of human tumour cells (NCI), 48 h
EKVX NSCLC = tested on: EKVX NSCLC
NCI-H23 lung = tested on: NCI-H23 lung
M14 melanoma = tested on: M14 melanoma
OVCAR-5 ovarian = tested on: OVCAR-5 ovarian
SF-268 CNS = tested on: SF-268 CNS
NCI/ADR-RES ovarian = tested on: NCI/ADR-RES ovarian
COLO 205 colon = tested on: COLO 205 colon
LOX IMVI melanoma = tested on: LOX IMVI melanoma
BT-549 breast = tested on: BT-549 breast
NCI-H522 lung = tested on: NCI-H522 lung
CAKI-1 renal = tested on: CAKI-1 renal
MDA-MB-231 breast = tested on: MDA-MB-231 breast
786-0 renal = tested on: 786-0 renal
MCF7 breast = tested on: MCF7 breast
NCI-H460 lung = tested on: NCI-H460 lung
T-47D breast = tested on: T-47D breast
SW-620 colon = tested on: SW-620 colon
OVCAR-8 ovarian = tested on: OVCAR-8 ovarian
HCT-116 colon = tested on: HCT-116 colon
SF-539 CNS = tested on: SF-539 CNS
DU-145 prostate = tested on: DU-145 prostate
SK-MEL-28 melanoma = tested on: SK-MEL-28 melanoma
K-562 leukemia = tested on: K-562 leukemia
SNB-75 CNS = tested on: SNB-75 CNS
MALME-3M melanoma = tested on: MALME-3M melanoma
OVCAR-4 ovarian = tested on: OVCAR-4 ovarian
ACHN renal = tested on: ACHN renal
U251 CNS = tested on: U251 CNS
HT29 colon = tested on: HT29 colon
SNB-19 CNS = tested on: SNB-19 CNS
MDA-MB-435 = tested on: MDA-MB-435
HCC-2998 colon = tested on: HCC-2998 colon
HOP-62 NSCLC = tested on: HOP-62 NSCLC
HOP-92 NSCLC = tested on: HOP-92 NSCLC
MOLT-4 leukemia = tested on: MOLT-4 leukemia
HCT-15 colon = tested on: HCT-15 colon
TK-10 renal = tested on: TK-10 renal
A549 NSCLC = tested on: A549 NSCLC
SN12C renal = tested on: SN12C renal
KM12 colon = tested on: KM12 colon
HL-60(TB) leukemia = tested on: HL-60(TB) leukemia
OVCAR-3 ovarian = tested on: OVCAR-3 ovarian
CCRF-CEM leukemia = tested on: CCRF-CEM leukemia
A498 renal = tested on: A498 renal
IGROV1 ovarian = tested on: IGROV1 ovarian
PC-3 prostate = tested on: PC-3 prostate
SK-MEL-5 melanoma = tested on: SK-MEL-5 melanoma
SR leukemia = tested on: SR leukemia
SF-295 CNS = tested on: SF-295 CNS
UACC-62 melanoma = tested on: UACC-62 melanoma
MDA-MB-468 breast = tested on: MDA-MB-468 breast
HS 578T breast = tested on: HS 578T breast
SK-OV-3 ovarian = tested on: SK-OV-3 ovarian
NCI-H226 lung = tested on: NCI-H226 lung
RPMI-8226 leukemia = tested on: RPMI-8226 leukemia
RXF 393 renal = tested on: RXF 393 renal
UO-31 renal = tested on: UO-31 renal
UACC-257 melanoma = tested on: UACC-257 melanoma
SK-MEL-2 melanoma = tested on: SK-MEL-2 melanoma

Structure (SMILES): C/C(=N\N=C\c1ccc(Cl)c([N+](=O)[O-])c1)c1ccc2c(c1)Nc1ccccc1S2
- GI50 (EKVX NSCLC): 5.85 µM
- TGI (EKVX NSCLC): > 100 µM
- GI50 (NCI-H23 lung): 6.83 µM
- TGI (NCI-H23 lung): 39.3 µM
- GI50 (M14 melanoma): 72.4 µM
- TGI (M14 melanoma): > 100 µM
- GI50 (OVCAR-5 ovarian): > 100 µM
- TGI (OVCAR-5 ovarian): > 100 µM
- GI50 (SF-268 CNS): 23.8 µM
- TGI (SF-268 CNS): > 100 µM
- GI50 (NCI/ADR-RES ovarian): 5.22 µM
- TGI (NCI/ADR-RES ovarian): 53.1 µM
- GI50 (COLO 205 colon): 36.1 µM
- TGI (COLO 205 colon): > 100 µM
- GI50 (LOX IMVI melanoma): 24.8 µM
- TGI (LOX IMVI melanoma): > 100 µM
- GI50 (BT-549 breast): 17.1 µM
- TGI (BT-549 breast): 91.8 µM
- GI50 (NCI-H522 lung): 11.6 µM
- TGI (NCI-H522 lung): > 100 µM
- GI50 (CAKI-1 renal): 13.7 µM
- TGI (CAKI-1 renal): > 100 µM
- GI50 (MDA-MB-231 breast): 14.3 µM
- TGI (MDA-MB-231 breast): > 100 µM
- GI50 (786-0 renal): 26.5 µM
- TGI (786-0 renal): > 100 µM
- GI50 (MCF7 breast): 3.19 µM
- TGI (MCF7 breast): 30 µM
- GI50 (NCI-H460 lung): 3.38 µM
- TGI (NCI-H460 lung): 20 µM
- GI50 (T-47D breast): 6.56 µM
- TGI (T-47D breast): > 100 µM
- GI50 (SW-620 colon): 3.56 µM
- TGI (SW-620 colon): > 100 µM
- GI50 (OVCAR-8 ovarian): 6.09 µM
- TGI (OVCAR-8 ovarian): > 100 µM
- GI50 (HCT-116 colon): 4.44 µM
- TGI (HCT-116 colon): > 100 µM
- GI50 (SF-539 CNS): 18.5 µM
- TGI (SF-539 CNS): 74.5 µM
- GI50 (DU-145 prostate): 3.76 µM
- TGI (DU-145 prostate): > 100 µM
- GI50 (SK-MEL-28 melanoma): 17.8 µM
- TGI (SK-MEL-28 melanoma): > 100 µM
- GI50 (K-562 leukemia): 5.37 µM
- TGI (K-562 leukemia): > 100 µM
- GI50 (SNB-75 CNS): 15.7 µM
- TGI (SNB-75 CNS): 93.5 µM
- GI50 (MALME-3M melanoma): 10.9 µM
- TGI (MALME-3M melanoma): 41.1 µM
- GI50 (OVCAR-4 ovarian): 4.03 µM
- TGI (OVCAR-4 ovarian): > 100 µM
- GI50 (ACHN renal): 14.4 µM
- TGI (ACHN renal): > 100 µM
- GI50 (U251 CNS): 7.43 µM
- TGI (U251 CNS): 52.4 µM
- GI50 (HT29 colon): 4.26 µM
- TGI (HT29 colon): > 100 µM
- GI50 (SNB-19 CNS): 15.8 µM
- TGI (SNB-19 CNS): 53.6 µM
- GI50 (MDA-MB-435): 14.4 µM
- TGI (MDA-MB-435): > 100 µM
- GI50 (HCC-2998 colon): 5.08 µM
- TGI (HCC-2998 colon): 19.4 µM
- GI50 (HOP-62 NSCLC): 8.03 µM
- TGI (HOP-62 NSCLC): 41.3 µM
- GI50 (HOP-92 NSCLC): 12.2 µM
- TGI (HOP-92 NSCLC): 61 µM
- GI50 (MOLT-4 leukemia): 9.98 µM
- TGI (MOLT-4 leukemia): > 100 µM
- GI50 (HCT-15 colon): 9.1 µM
- TGI (HCT-15 colon): > 100 µM
- GI50 (TK-10 renal): 18 µM
- TGI (TK-10 renal): 94.4 µM
- GI50 (A549 NSCLC): 12.2 µM
- TGI (A549 NSCLC): > 100 µM
- GI50 (SN12C renal): 44.3 µM
- TGI (SN12C renal): > 100 µM
- GI50 (KM12 colon): 9.7 µM
- TGI (KM12 colon): > 100 µM
- GI50 (HL-60(TB) leukemia): 16.9 µM
- TGI (HL-60(TB) leukemia): > 100 µM
- GI50 (OVCAR-3 ovarian): 4.46 µM
- TGI (OVCAR-3 ovarian): 22.5 µM
- GI50 (CCRF-CEM leukemia): 4.12 µM
- TGI (CCRF-CEM leukemia): > 100 µM
- GI50 (A498 renal): 31 µM
- TGI (A498 renal): > 100 µM
- GI50 (IGROV1 ovarian): 17.7 µM
- TGI (IGROV1 ovarian): > 100 µM
- GI50 (PC-3 prostate): 3 µM
- TGI (PC-3 prostate): 23.3 µM
- GI50 (SK-MEL-5 melanoma): 7.91 µM
- TGI (SK-MEL-5 melanoma): > 100 µM
- GI50 (SR leukemia): 3.49 µM
- TGI (SR leukemia): > 100 µM
- GI50 (SF-295 CNS): 7.73 µM
- TGI (SF-295 CNS): 65.3 µM
- GI50 (UACC-62 melanoma): 15.1 µM
- TGI (UACC-62 melanoma): > 100 µM
- GI50 (MDA-MB-468 breast): 1.58 µM
- TGI (MDA-MB-468 breast): 5.66 µM
- GI50 (HS 578T breast): 7.56 µM
- TGI (HS 578T breast): 62.3 µM
- GI50 (SK-OV-3 ovarian): 37 µM
- TGI (SK-OV-3 ovarian): > 100 µM
- GI50 (NCI-H226 lung): 8.48 µM
- TGI (NCI-H226 lung): 41.9 µM
- GI50 (RPMI-8226 leukemia): 4.27 µM
- TGI (RPMI-8226 leukemia): > 100 µM
- GI50 (RXF 393 renal): 15.3 µM
- TGI (RXF 393 renal): 59 µM
- GI50 (UO-31 renal): 78.2 µM
- TGI (UO-31 renal): > 100 µM
- GI50 (UACC-257 melanoma): 9.51 µM
- TGI (UACC-257 melanoma): > 100 µM
- GI50 (SK-MEL-2 melanoma): 43.2 µM
- TGI (SK-MEL-2 melanoma): > 100 µM
